The values that follow are results of earlier work, collected in patent publication US6346511B1, “Pharmaceutical composition comprising cyclosporin” (Panacea Biotec Limited, priority 1997, dated 2002).

The subject of this series is normal epithelial tissue and Peyer's patch tissue of guinea pigs. As to conditions: in vitro, compared to the commercially available drinking solution.

As to Choleic acid, the “factor by which absorption of Cyclosporine was raised” value is on record as 5-6.
